Target: T1, nAChR α7 (Homo sapiens, UniProt P36544)
T1 construct: host or cells: CHO cells
Assay: cell-based
Settings: with 300 μM Ach + 10 μM PNU-120596, 10 μM MLA = full inhibition, read-out: Normalized % Inhibition

T1 sequence (P36544 23-502): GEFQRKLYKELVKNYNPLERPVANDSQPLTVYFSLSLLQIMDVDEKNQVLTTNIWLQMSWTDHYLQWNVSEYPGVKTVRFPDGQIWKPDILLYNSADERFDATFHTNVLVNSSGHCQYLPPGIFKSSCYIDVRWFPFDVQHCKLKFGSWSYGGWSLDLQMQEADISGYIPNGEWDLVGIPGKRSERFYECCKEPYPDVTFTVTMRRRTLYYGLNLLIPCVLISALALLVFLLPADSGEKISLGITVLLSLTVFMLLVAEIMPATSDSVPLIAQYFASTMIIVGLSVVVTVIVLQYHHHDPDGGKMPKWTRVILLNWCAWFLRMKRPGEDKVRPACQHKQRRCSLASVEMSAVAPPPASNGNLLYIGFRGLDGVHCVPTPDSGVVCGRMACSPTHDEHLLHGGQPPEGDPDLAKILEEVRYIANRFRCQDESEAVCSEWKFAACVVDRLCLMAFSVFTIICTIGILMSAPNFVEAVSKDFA

`C1=CCC(c2cccnc2)NC1` (racemic) [Anatabine (racemate)] was tested, and the inhibition at 0.3 µM (test conc 0.3 μM) was 22.4%, the inhibition at 1 µM (test conc 1 μM) was 22.2% and the inhibition at 3 µM (test conc 3 μM) was 45.2%. For the same molecule, the inhibition at 10 µM (test conc 10 μM) was 33.4%, the inhibition at 30 µM (test conc 30 μM) was 22.9% and the inhibition at 100 µM (test conc 100 μM) was 22%. The inhibition at 300 µM (test conc 300 μM) was 7.51% and the inhibition at 1000 µM (test conc 1000 μM) was 10.8%.

Reference: patent US20120196899A1, “METHODS AND PRODUCTS FOR TREATING INFLAMMATION” (Rock Creek Pharmaceuticals, Inc., priority 2010, published 2012)
